Here are results for three compounds from patent US6488164B2, “Compositions including modafinil for treatment of attention deficit hyperactivity disorder and multiple sclerosis fatigue” (Cephalon, Inc., priority 1999, dated 2002).

The test system of series [1] is Fos-IR neurons in cingulate cortex, TMN, VTA. Briefly: Fos immunohistochemistry cell counts in rat brain, modafinil given at midnight (Example 1). It is filed as in vivo. Conditions: rats. The protocol:
(§1) Experimental Design: In the following examples, rats were sacrificed two hours following treatment, and the brains were analyzed using immunohistochemistry for Fos. In Examples 1 and 2, rats were instrumented for electroencephalogram (EEG) and electromyogram (EMG) recordings. To avoid the stress of handling during administration of modafinil or vehicle, chronic catheters were placed in the peritoneal cavity for administration of modafinil or vehicle.
(§2) Animals and Recording Environment: 65, male, Sprague-Dawley rats (Harlan) weighing 270-330 g were housed individually in a pathogen-free barrier facility in a room maintained at 21.5-22.5° C. with lights on at 7 AM and off at 7 PM. Rats had food and water available ad lib. At least 3 days before each experiment, rats were placed into a light-tight, sound-attenuated recording chamber (Biocube) in an isolated room. Light intensity was 100-150 lux at midlevel inside each cage. The Institutional Animal Care and Use Committees of Beth Israel Deaconess Medical Center and Harvard Medical School approved all procedures.
(§3) Animal Surgery: Under chloral hydrate anesthesia (350 mg/kg ip), the rats of Examples 1 and 2 were surgically implanted with four EEG screws (AP: +3, −4; RL: +2,−2 from bregma) lightly contacting the dura and two EMG wires (Plastics One, Roanoke, Va.) below the nuchal muscles. The leads were connected to a six channel connector (Plastics One) which was affixed to the skull with dental acrylic. A telemetric temperature transmitter (TA10TA-F40, Data Sciences International, St. Paul, Minn.) was placed in the peritoneal cavity of all but 5 rats. To administer drugs without handling the rats, an 80 cm silastic catheter (1 mm I.D., Baxter Scientific Products) was inserted into the peritoneal cavity, subcutaneously tunneled to the scalp, cemented in place with dental acrylic, and protected externally by a spring. This intraperitoneal catheter was filled with heparinized, pyrogen-free saline and flushed weekly and 3 days prior to the experiment. Animals recovered at least 14 days and then acclimated to recording cables for three days prior to the start of physiological recordings.
(§4) Drug Administration: Modafinil (lot #PA 008; Cephalon, Inc., West Chester, Pa.) was suspended in a solution of 0.25% methylcellulose (pH=7.4, Dow Chemical Inc., Midland, Mich.) in 0.9% pyrogen-free saline. The drug was administered in a volume of 2.0 ml/kg at doses of 150 mg/kg. Control animals received an equal volume of methylcellulose vehicle. Catheters were then flushed with 1 ml 0.9% saline to assure delivery of drug into the peritoneal cavity. A red flashlight was used to aid injections performed in the dark.
(§5) Histology and Immunohistochemistry: Two hours following drug injections, animals were deeply anesthetized with chloral hydrate (600 mg/kg ip) and transcardially perfused with 100 ml 0.9% saline followed by 500 ml of phosphate buffered 10% formalin, pH 7.0 (Sigma). Brains were removed, postfixed for 4 hours in formalin, and then allowed to equilibrate in 20% sucrose in 0.1 M phosphate buffered saline (PBS), with 0.02% sodium azide (Sigma) at 4° C. Brains were sectioned (1:5 series, 30 μm) on a freezing microtome and stored in PBS-azide at 4° C. One series from each brain was stained for Fos using previously described methods (Elmquist et al., 1996). […]

Series [2] relates to Fos-IR neurons in VLPO, TMN, cortex. Description: Fos immunohistochemistry cell counts in rat brain, modafinil given at noon (Example 2). It is filed as in vivo. The protocol:
as §1, §2, §3, §4, §5

The next series relates to TMN. The settings on record: rats, wake-promoting doses; cited from earlier work.
Series [3] concerns TMN of the posterior hypothalamus. Conditions: cats, wake-promoting dose; cited from earlier work.
Series [4] concerns wakefulness. The settings on record: rats, cats, canines, non-human primates; also sleep apnea and narcolepsy models; cited from earlier work.
In series [5] the test system is wakefulness. Conditions: cited from earlier work.
A further series concerns MS fatigue. Conditions: cited from earlier work.
Where [6] appears, read: modafinil 150 mg/kg ip at midnight, 2 h after treatment, mean ± standard error, n=6.
[7] abbreviates: rats on normal LD cycle, 150 mg/kg at noon.
Where [8] appears, read: rats, modafinil 150 mg/kg ip at noon, 2 h after treatment, n=7.

Regarding `NC(=O)C[S+]([O-])C(c1ccccc1)c1ccccc1` (stereo not drawn) [Modafinil, modafinil], the “Fos-IR neurons in TMN relative to controls” value in series [1] (150 mg/kg at midnight) is reported as “four times as many”. Besides, in series [1] (150 mg/kg at midnight, more pronounced in cingulate and pyriform cortex), the “Fos immunoreactivity in the cortex versus controls” value is “more Fos immunoreactivity in the cortex than the controls”. Besides, in series [1] (setting [6]), the “Fos-IR cell count, TMN” value is reported as 46 ± 4; the “Fos-IR cell count, VTA” value amounted to 12 ± 3; the “Fos-IR cell count, cingulate cortex” value amounted to 191 ± 38. Moreover, in series [2] (setting [7]), the “Number of Fos-IR neurons in the TMN (in words)” value is “markedly increased” and the “Number of Fos-IR neurons in the VLPO (in words)” value is “decreases”. In addition, the “Expression of Fos in frontal and cingulate cortex (in words)” value in series [2] (rats, 150 mg/kg at noon) is “increased expression of Fos”. Further, in series [2] (setting [8]), the “Fos-IR cell count, TMN” value turned out to be 43 ± 5 and the “Fos-IR cell count, VLPO” value is given as 26 ± 3. For the same compound, in the series on TMN, the “Association of modafinil-induced wakefulness with activation of the TMN (in words)” value is “not associated with activation of the TMN”. Moreover, the “Activation of the TMN of the posterior hypothalamus (in words)” value in series [3] is listed as “failed to cause activation of the TMN”. Moreover, in the series with wakefulness [4], the “Wakefulness (in words)” value is given as “promotes wakefulness”. In the series on wakefulness [5] (400 mg/day, humans), the “Tolerability in clinical trials” value was “well tolerated”. Besides, the “Optimum wakefulness promoting dose” value in the series with wakefulness [5] (adult humans) is listed as 200 mg/day. Moreover, the “Lower threshold of wake-promoting doses” value with wakefulness [5] (human oral, known in the art) is recorded as “about 100 mg/day”.
As to `NC1=NC(=O)C(c2ccccc2)O1` (stereo not drawn) [pemoline], the “Beneficial effect in MS fatigue (in words)” value with MS fatigue (same study, MS patients) is on record as “failed to show a beneficial effect”.
`NC12CC3CC(CC(C3)C1)C2` [Amantadine, amantadine]: in the series on MS fatigue (double blind, randomized study), the “Patients with benefit in MS fatigue” value is listed as 79%.
